Measurements reported in BigSolDB 2.1.

ClCc1ccc(Cl)nc1
Conditions | solubility (mole fraction)
in acetone, 278.85 K | 0.0226
in acetone, 281.75 K | 0.0249
in acetone, 283.55 K | 0.0267
in acetone, 284.65 K | 0.0278
in acetone, 288.95 K | 0.0325
in acetone, 291.15 K | 0.0353
in acetone, 293.65 K | 0.0385
in acetone, 295.85 K | 0.0415
in acetone, 297.65 K | 0.0442
in acetone, 300.35 K | 0.0486
in acetone, 302.95 K | 0.0528
in acetone, 304.85 K | 0.0566
in acetone, 307.05 K | 0.0604
in chloroform, 275.85 K | 0.0164
in chloroform, 279.35 K | 0.0204
in chloroform, 281.55 K | 0.0235
in chloroform, 284.35 K | 0.028
in chloroform, 287.45 K | 0.0339
in chloroform, 290.35 K | 0.0405
in chloroform, 292.95 K | 0.0473
in chloroform, 295.25 K | 0.0546
in chloroform, 297.65 K | 0.063
in chloroform, 298.55 K | 0.0665
in chloroform, 300.45 K | 0.0745
in chloroform, 302.75 K | 0.0858
in chloroform, 306.95 K | 0.109
in ethanol, 277.65 K | 0.00332
in ethanol, 279.75 K | 0.00365
in ethanol, 282.05 K | 0.00406
in ethanol, 284.75 K | 0.00456
in ethanol, 287.35 K | 0.00521
in ethanol, 289.65 K | 0.00576
in ethanol, 292.65 K | 0.00661
in ethanol, 295.35 K | 0.00749
in ethanol, 298.35 K | 0.00859
in ethanol, 301.85 K | 0.0102
in ethanol, 304.15 K | 0.0112
in ethanol, 305.85 K | 0.012
in ethanol, 307.25 K | 0.0127
in ethyl acetate, 278.35 K | 0.00447
in ethyl acetate, 280.05 K | 0.00488
in ethyl acetate, 281.65 K | 0.0053
in ethyl acetate, 284.75 K | 0.00619
in ethyl acetate, 286.25 K | 0.00667
in ethyl acetate, 288.15 K | 0.00731
in ethyl acetate, 290.45 K | 0.00825
in ethyl acetate, 292.95 K | 0.00939
in ethyl acetate, 296.15 K | 0.011
in ethyl acetate, 299.05 K | 0.0125
in ethyl acetate, 302.95 K | 0.0153
in ethyl acetate, 305.35 K | 0.0167
in ethyl acetate, 306.45 K | 0.0176
in ethyl acetate, 307.45 K | 0.0184
in methanol, 277.25 K | 0.00235
in methanol, 281.35 K | 0.00277
in methanol, 282.75 K | 0.00296
in methanol, 284.35 K | 0.00319
in methanol, 288.85 K | 0.00392
in methanol, 292.75 K | 0.00468
in methanol, 296.05 K | 0.00537
in methanol, 299.25 K | 0.00607
in methanol, 303.75 K | 0.00722
in methanol, 305.35 K | 0.00768
in methanol, 306.55 K | 0.00803
in toluene, 278.75 K | 0.0191
in toluene, 281.55 K | 0.0249
in toluene, 283.25 K | 0.0293
in toluene, 287.35 K | 0.043
in toluene, 288.15 K | 0.0464
in toluene, 290.75 K | 0.059
in toluene, 292.15 K | 0.0671
in toluene, 293.75 K | 0.0776
in toluene, 295.45 K | 0.0906
in toluene, 297.75 K | 0.111
in toluene, 301.65 K | 0.158
in toluene, 305.55 K | 0.223
in water, 277.75 K | 0.000167
in water, 280.25 K | 0.000174
in water, 283.75 K | 0.000197
in water, 288.35 K | 0.000215
in water, 292.15 K | 0.000234
in water, 294.25 K | 0.000249
in water, 297.65 K | 0.000265
in water, 301.25 K | 0.000288
in water, 302.95 K | 0.000295
in water, 304.25 K | 0.000308
in water, 305.85 K | 0.00032
in water, 308.75 K | 0.000332
in water, 309.15 K | 0.00034
